# Source: patent US20240239801A1, “PYRIMIDO[5,4,D]PYRIMIDINE COMPOUNDS, COMPOSITIONS COMPRISING THEM AND USES THEREOF” (Université de Montréal, priority 2021, published 2024)
# Biological target: T1, ARAF (Homo sapiens, UniProt P10398)
# T1 sequence (P10398 310-570 limits assumed): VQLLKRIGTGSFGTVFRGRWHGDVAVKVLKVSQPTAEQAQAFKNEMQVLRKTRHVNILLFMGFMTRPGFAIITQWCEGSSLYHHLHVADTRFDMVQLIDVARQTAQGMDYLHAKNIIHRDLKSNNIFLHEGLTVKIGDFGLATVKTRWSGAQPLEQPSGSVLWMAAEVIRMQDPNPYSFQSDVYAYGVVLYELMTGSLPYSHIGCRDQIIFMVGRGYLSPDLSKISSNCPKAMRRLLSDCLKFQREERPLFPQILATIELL
# Test: ARAF kinase activity assay (AlphaLISA p-MEK detection)
# Format: biochemical
# Conditions: Table A
# Protocol: Compound preparation: solid samples of each substances in 1dram vials were suspended in DMSO (Fisher Scientific) at a stock concentration of 20 mM. Stocks were kept at −20° C. and protected from light. If solubility of the compound at 20 mM appeared to be an issue, the initial concentration of the DMSO stock was changed to 10 mM or 5 mM.
# In vitro enzymatic reactions were used for evaluating compounds intrinsic activity against BRAF, CRAF and ARAF. For BRAF and CRAF, 0.375 nM of purified GST-tagged kinases (cat #B4062-10UG and cat #R1656-10UG respectively from Millipore Sigma) were incubated with 75 nM of kinase-dead MEK1 substrate (cat #40075; BPS Bioscience) in the presence of 10 μM of Ultrapure ATP (cat #V9102; Promega; part V915A) with and without the test compound in a buffer containing 50 mM HEPES pH 7.5, 10 mM MgCl2, 1 mM EDTA, 0.01% Brij-35 and 2 mM DTT. Separate reactions were performed with the MEK1 substrate and ATP as a blank control. ARAF, kinase reactions were rigorously the same with the exception that kinase concentration was raised to 3.75 nM (cat #1768-0000-1; Reaction Biology).
# For compound treatment, 5 μL/well of test substance solution are placed in a 384-well proxyplate (Perkin Elmer) and mixed with 2× concentrated kinase reactions. The dilution series is selected so that nine concentrations cover a range from 100 nM to 0.01 nM. […] The final concentration of DMSO in the assay is set at 0.05%.
# ARAF kinase reactions were carried out for a total of 2 hours at 30° C. and then stopped by addition of EDTA at a final concentration of 40 mM. Reactions were then detected using the AlphaLISA® SureFire® Ultra™ p-MEK ½ (Ser218/222) (PerkinElmer) kit. Reactions were performed with 5 μL of kinase reaction according to the manufacturer's specifications in 384-well proxyplates (Perkin Elmer) followed by overnight incubation of the reactions at room temperature in a humidified chamber. After completion of the detection reactions, the signals were recorded on a Synergy Neo2 plate reader (Biotek) equipped with AlphaLISA® filters. The effect of each compound dilution on the pMEK signal generated by ARAF reactions was expressed in % inhibition and calculated as follows. An internal 100% inhibition control (average of luminescence in kinase reactions comprising kinase dead MEK1 substrate alone) was included in each plate to measure of pMEK background and was subtracted from each data point. The average of DMSO (vehicle) controls (set as 0% inhibition) was also established and used to calculate % inhibition:
# IC50 values were obtained by plotting the kinase inhibition values and fitting the dose-activity curves using a log(agonist) versus response−variable slope (four parameters) function using either GraphPadPrism (V7.0) or Dotmatics Screening Ultra platform. Standards included in the ARAF kinase assay were Belvarafenib (MedChem Express cat #HY-109080; CAS #1446113-23-0), LXH254 (MedChem Express cat #HY-112089; CAS #1800398-38-2) and BGB283 (cat #HY-18957; CAS #1446090-79-4).
row,Compound,IC50 [nM]
1,COc1ccc(S(=O)(=O)Nc2ccc(F)c(Nc3ncnc4cnc(-n5cnc6c(N)cccc65)nc34)c2F)c(C)c1Cl [Example 112],> 20
2,"Cc1ccc2c(Nc3cccc(Cl)c3F)nccc2c1NC(=O)c1csc2c(N)ncnc12 [Belvarafenib, reference compound]",> 20
3,O=S(=O)(Nc1ccc(F)c(Nc2ncnc3cnc(-n4cnc5c(N6CCC7(CCCO7)CC6)cccc54)nc23)c1F)c1cccc(Cl)c1Cl [Example 129],10 to 20

# Second part, the molecule after the results:
row,IC50 [nM],Compound
1,< 10,Cc1c(F)cccc1S(=O)(=O)Nc1ccc(F)c(Nc2ncnc3cnc(-n4cnc5c(-c6cccnc6)cccc54)nc23)c1F [Example 114]
2,10 to 20,Cc1c(F)cccc1S(=O)(=O)Nc1ccc(F)c(Nc2ncnc3cnc(-n4cc(C(=O)N(C)Cc5ccncc5)c5ccccc54)nc23)c1F [Example 98]
